Data reported in article PMC12022903, “Evaluation of drug-drug interaction between Suraxavir Marboxil (GP681) and itraconazole, and assessment of the impact of gene polymorphism” (Frontiers in Pharmacology, 2025).
Several values for one entry are separate records, joined by “and”; a condition that tells them apart may be missing. Equal values may be shown once. Read-outs that look alike come from different tables or passages of the source.

Experiments:
[1] = for GP1707D07 concentration: Period 1 GP681 monotherapy, individual subjects; for GP1707D07 concentration, Geo Mean / GP1707D07 concentration, Mean: plasma; for GP1707D07 concentration, Geo Mean: Geo Mean of subjects 301-312, Period 2 GP681-itraconazole co-administration; for GP1707D07 concentration, Mean: Mean of subjects 301-312, Period 2 GP681-itraconazole co-administration
[2] = system: avian influenza virus strains; conditions: ref unpublished data; cited from earlier work
[3] = design: method as in unpublished data; conditions: preclinical studies; ref unpublished data; cited from earlier work
cytochrome P450 (CYP) = system: cytochrome P450 (CYP); design: method as in unpublished data; conditions: preclinical studies; ref unpublished data; cited from earlier work
CYP3A4 = conditions: preclinical in vitro studies; cited from earlier work
BCRP = system: BCRP; design: method as in unpublished data; conditions: preclinical studies; ref unpublished data; cited from earlier work
MDR1 [4] = system: MDR1; design: method as in unpublished data; conditions: preclinical studies; ref unpublished data; cited from earlier work
liver enzymes = system: liver enzymes; design: method as in unpublished data; conditions: preclinical studies; ref unpublished data; cited from earlier work
MDR1 [5] = system: MDR1; design: method as in unpublished data; conditions: preclinical studies; ref unpublished data; cited from earlier work; remark: listed apart in the source
OATP1B1 = system: OATP1B1; design: method as in unpublished data; conditions: preclinical studies; ref unpublished data; cited from earlier work
OATP1B3 = system: OATP1B3; design: method as in unpublished data; conditions: preclinical studies; ref unpublished data; cited from earlier work
OAT1 = system: OAT1; design: method as in unpublished data; conditions: preclinical studies; ref unpublished data; cited from earlier work
OAT3 = system: OAT3; design: method as in unpublished data; conditions: preclinical studies; ref unpublished data; cited from earlier work
[6] = design: method as in unpublished data; conditions: after oral GP681; ref unpublished data; cited from earlier work
[7] = design: method as in Phase I study; conditions: ref Phase I study, cited from earlier work
influenza virus = system: influenza virus; design: method as in preclinical studies; conditions: ref preclinical studies; cited from earlier work

O=C1c2c(O)c(=O)ccn2N([C@@H]2c3ccccc3SCc3c2ccc(F)c3F)[C@@H]2COC3(CC3)CN12 [GP1707D07]
time from which GP1707D07 concentrations exceed the clinical effective concentration ([1]; GP681 20 mg + itraconazole, post-dose, threshold 6.87 ng/mL): 1 h | GP1707D07 concentration ([1]; 0.5h): 17.9 ng/mL and 0.6 ng/mL and 10.8 ng/mL and 2.8 ng/mL and 8.3 ng/mL and 1.4 ng/mL | GP1707D07 concentration ([1]; 1h): 23.5 ng/mL and 1.8 ng/mL and 16.5 ng/mL and 6.2 ng/mL and 10.1 ng/mL and 5.6 ng/mL | GP1707D07 concentration ([1]; 2h): 33.1 ng/mL and 4.5 ng/mL and 26.9 ng/mL and 7.2 ng/mL and 12.6 ng/mL and 9.4 ng/mL | GP1707D07 concentration ([1]; 3h): 44.4 ng/mL and 11.9 ng/mL and 25.1 ng/mL and 6.4 ng/mL and 14.2 ng/mL and 10.4 ng/mL | GP1707D07 concentration ([1]; 4h): 36.1 ng/mL and 13.4 ng/mL and 24.0 ng/mL and 5.7 ng/mL and 15.4 ng/mL and 11.0 ng/mL | GP1707D07 concentration ([1]; 5h): 30.8 ng/mL and 14.9 ng/mL and 20.4 ng/mL and 7.0 ng/mL and 15.5 ng/mL and 12.0 ng/mL | GP1707D07 concentration ([1]; 6h): 30.7 ng/mL and 18.0 ng/mL and 19.4 ng/mL and 7.0 ng/mL and 15.2 ng/mL and 11.0 ng/mL | GP1707D07 concentration ([1]; 8h): 24.5 ng/mL and 14.2 ng/mL and 17.9 ng/mL and 6.9 ng/mL and 13.5 ng/mL and 9.5 ng/mL | GP1707D07 concentration ([1]; 12h): 21.5 ng/mL and 12.6 ng/mL and 14.5 ng/mL and 6.6 ng/mL and 11.1 ng/mL and 8.8 ng/mL and 20.0 ng/mL | GP1707D07 concentration ([1]; 24h): 17.5 ng/mL and 10.3 ng/mL and 12.6 ng/mL and 5.4 ng/mL and 10.1 ng/mL and 6.3 ng/mL and 14.7 ng/mL | GP1707D07 concentration ([1]; 36h): 14.8 ng/mL and 8.1 ng/mL and 10.5 ng/mL and 4.4 ng/mL and 8.8 ng/mL and 5.4 ng/mL and 11.8 ng/mL | GP1707D07 concentration ([1]; 48h): 12.3 ng/mL and 6.9 ng/mL and 7.4 ng/mL and 3.9 ng/mL and 6.7 ng/mL and 5.1 ng/mL and 9.0 ng/mL | GP1707D07 concentration ([1]; 72h): 7.8 ng/mL and 5.1 ng/mL and 4.9 ng/mL and 3.2 ng/mL and 6.0 ng/mL and 3.6 ng/mL and 7.6 ng/mL | GP1707D07 concentration ([1]; 120h): 4.8 ng/mL and 3.5 ng/mL and 3.2 ng/mL and 1.7 ng/mL and 4.0 ng/mL and 2.1 ng/mL and 3.6 ng/mL | GP1707D07 concentration ([1]; 168h): 2.4 ng/mL and 2.0 ng/mL and 1.9 ng/mL and 1.1 ng/mL and 2.2 ng/mL and 1.3 ng/mL | GP1707D07 concentration ([1]; 264h): 1.3 ng/mL and 1.0 ng/mL and 0.8 ng/mL and 0.7 ng/mL | GP1707D07 concentration, Geo Mean ([1]; D26, 0.5h): 4.4 ng/mL | GP1707D07 concentration, Geo Mean ([1]; D26, 1h): 8.5 ng/mL | GP1707D07 concentration, Geo Mean ([1]; D26, 2h): 15.2 ng/mL | GP1707D07 concentration, Geo Mean ([1]; D26, 3h): 17.9 ng/mL | GP1707D07 concentration, Geo Mean ([1]; D26, 4h): 19.7 ng/mL | GP1707D07 concentration, Geo Mean ([1]; D26, 5h): 20.9 ng/mL | GP1707D07 concentration, Geo Mean ([1]; D26, 6h): 20.4 ng/mL | GP1707D07 concentration, Geo Mean ([1]; D26, 8h): 19.0 ng/mL | GP1707D07 concentration, Geo Mean ([1]; D26, 12h): 16.7 ng/mL | GP1707D07 concentration, Geo Mean ([1]; D26, 24h): 14.9 ng/mL | GP1707D07 concentration, Geo Mean ([1]; D26, 36h): 13.5 ng/mL | GP1707D07 concentration, Geo Mean ([1]; D26, 48h): 12.1 ng/mL | GP1707D07 concentration, Geo Mean ([1]; D26, 72h): 9.6 ng/mL | GP1707D07 concentration, Geo Mean ([1]; D26, 120h): 6.8 ng/mL | GP1707D07 concentration, Geo Mean ([1]; D26, 168h): 5.1 ng/mL | GP1707D07 concentration, Geo Mean ([1]; D26, 264h): 3.2 ng/mL | GP1707D07 concentration, Mean ([1]; D26, 0h): 0.0 ng/mL | GP1707D07 concentration, Mean ([1]; D26, 0.5h): 6.4 ng/mL | GP1707D07 concentration, Mean ([1]; D26, 1h): 10.4 ng/mL | GP1707D07 concentration, Mean ([1]; D26, 2h): 17.0 ng/mL | GP1707D07 concentration, Mean ([1]; D26, 3h): 19.7 ng/mL | GP1707D07 concentration, Mean ([1]; D26, 4h): 21.3 ng/mL | GP1707D07 concentration, Mean ([1]; D26, 5h): 22.0 ng/mL | GP1707D07 concentration, Mean ([1]; D26, 6h): 21.6 ng/mL | GP1707D07 concentration, Mean ([1]; D26, 8h): 20.0 ng/mL | GP1707D07 concentration, Mean ([1]; D26, 12h): 17.6 ng/mL | GP1707D07 concentration, Mean ([1]; D26, 24h): 15.6 ng/mL | GP1707D07 concentration, Mean ([1]; D26, 36h): 14.2 ng/mL | GP1707D07 concentration, Mean ([1]; D26, 48h): 12.5 ng/mL | GP1707D07 concentration, Mean ([1]; D26, 72h): 10.1 ng/mL | GP1707D07 concentration, Mean ([1]; D26, 120h): 7.1 ng/mL | GP1707D07 concentration, Mean ([1]; D26, 168h): 5.4 ng/mL | GP1707D07 concentration, Mean ([1]; D26, 264h): 3.3 ng/mL | average ratio of GP1707D07 concentration at each time point (Period 2: Period 1) ([1]; within 24 h post-dose): 1.7–2.0 | in vitro antiviral activity (average EC50 and EC90) compared with baloxavir [2]: better in vitro antiviral activity | in vitro inhibitory activity against avian influenza virus strains [2]: inhibitory activity against all tested avian influenza virus strains | route of excretion [3]: mainly excreted in feces | tissue distribution [3]: widely distributed across various tissues | metabolizing enzymes (cytochrome P450 (CYP)): mainly metabolized by cytochrome P450 (CYP) 1A2, CYP 2C8, and CYP 3A4 | substrate of CYP3A4 (CYP3A4): is a substrate of CYP3A4 | substrate for the BCRP transporter (BCRP): Neither Suraxavir Marboxil (GP681) nor its metabolite, GP1707D07, serves as substrates | substrate for the MDR1 transporter (MDR1 [4]): Neither Suraxavir Marboxil (GP681) nor its metabolite, GP1707D07, serves as substrates | inhibition or induction of liver enzymes (liver enzymes): do not significantly inhibit or induce liver enzymes | inhibition of transport activity of MDR1 (MDR1 [5]): nor do they inhibit the transport activity | inhibition of transport activity of OATP1B1 (OATP1B1): nor do they inhibit the transport activity | inhibition of transport activity of OATP1B3 (OATP1B3): nor do they inhibit the transport activity | inhibition of transport activity of OAT1 (OAT1): nor do they inhibit the transport activity | inhibition of transport activity of OAT3 (OAT3): nor do they inhibit the transport activity | share of the total radioactivity in serum [6]: approximately 95.4% | C24 ([7]; all tested dose cohorts (20 mg–80 mg)): > 6.87 ng/mL | time maintained above the target concentration (6.87 ng/mL) ([7]; dose cohorts 20 mg–80 mg): 72 to 136 h | estimated clinically effective concentration (antiviral threshold) (influenza virus): 6.87 ng/mL
